Test [1] relates to prostate cancer with node metastases and invasion of the bladder floor. Briefly: Clinical observation: patient with prostate cancer, tumor markers PSA and CEA. Format: in vivo, human. Details: PSA: unit not given beside the values. The source says:
The patient is an individual diagnosed with prostate cancer with node metastases and invasion of the bladder floor. […] In March 2003, PSA level was 1096, the carcinoembryonic antigen was 6.85.
Carcinoembryonic antigen is a substance that usually only appears during fetal development and reappears again in adults who develop certain types of cancer: colon, rectum, stomach, esophagus, liver, pancreas, bladder, and breast (female mammary gland), lung and prostate as well.
The test of carcinoembryonic antigen (CEA) plays an important role in monitoring patient outcomes with cancer and metastasis. Even though it can not be considered a final marker, it serves as a useful guide. Its constant increase means that therapy has not achieved positive results. A decrease indicates a trend towards regression of the lesion.
The patient starts with a daily dose of 250 mg of Flutamide (fluxus) until reaching a PSA of 252. After 4 months, PSA reaches 525. From this point, the patient receives a double dose of Flutamide until registering a PSA of 256. CEA level was 5.84. After three months PSA rises again to 580. The tumor becomes resistant to hormone therapy. […] At first, PSA level was 600 and CEA level was 8.86. […] CEA level has dropped to 6.51. PSA level has changed to 700, a much better value if compared to the resistance to flutamide.
The patient underwent surgery to improve the diameter of the urethra and to remove the catheter that started to produce frequent bleeding. After the surgery, the patient suffered a massive infection due to Escherichia coli bacteria. They received anti-bacterial treatment with good results. PSA reached 698. After the surgery, the administration of the composition of the invention re-started, and after 2 months, PSA dropped to 88 and CEA to 5.04. During the following 2 months, PSA level reached 10 ng/ml level. After 70 days, PSA registers 4 ng/ml levels, which are considered normal values. CEA level was 3.97. Currently, the patient has returned to work (August, 2005). They had also had dialysis due to complications during the surgery. The patient has been taking the composition in daily basis during the next two years, maintaining a good health condition. Despite the three dialysis sessions per week that they are receiving, […] general state is good; they manage to do everything by themself and exercises every morning; PSA is 15 but CEA has always been 2.5 ng/ml. During these two years (March, 2007), they have kept a strict diet and has not received any other type of anti-tumor therapy.

Another test relates to S. aureus. Briefly: Microbiological test for bactericidal properties (inhibition halo), S. aureus. In kind it is cell-based, Staphylococcus aureus. The note with it: Gentamicin 2 μg/ml. The source says:
Microbiological Tests to Determine Bactericidal Properties of the Aqueous and Ethanolic Extracts of the Composition of the Invention:
The inhibitory halo of FT001 registered a diameter of approximately 12 mm.

Experimental findings from patent publication US8715747B2, “Biocomposition stimulant of the immune system, anti-tumor and anti-HIV” (Pharmabrand S.A., priority 2007, dated 2014) are described below.

For the molecule `CC(C)C(=O)Nc1ccc([N+](=O)[O-])c(C(F)(F)F)c1` [Flutamide], the PSA in test [1] (250 mg Flutamide daily, after 4 months) was found to be 525; in test [1] (daily dose of 250 mg Flutamide, start PSA 1096), 252; in test [1] (double dose of Flutamide), 256; in test [1] (double dose of Flutamide, after three months, PSA rises again), 580. In test [1] (double dose of Flutamide), this molecule yielded a CEA level of 5.84.
Consider Gentamicin, for which the “halo of the lower standard” value in the test with S. aureus is given as 12.2 mm.
